Assay results: ChEMBL document CHEMBL5291721, “A preclinical secondary pharmacology resource illuminates target-adverse drug reaction associations of marketed drugs” (Nat Commun, 2023)

What was measured:
[1] = biological target: Sodium-dependent serotonin transporter (Homo sapiens, UniProt P31645)
Estrogen receptor = biological target: T1, Estrogen receptor (Homo sapiens, UniProt P03372)
T1 sequence (P03372 whole entry): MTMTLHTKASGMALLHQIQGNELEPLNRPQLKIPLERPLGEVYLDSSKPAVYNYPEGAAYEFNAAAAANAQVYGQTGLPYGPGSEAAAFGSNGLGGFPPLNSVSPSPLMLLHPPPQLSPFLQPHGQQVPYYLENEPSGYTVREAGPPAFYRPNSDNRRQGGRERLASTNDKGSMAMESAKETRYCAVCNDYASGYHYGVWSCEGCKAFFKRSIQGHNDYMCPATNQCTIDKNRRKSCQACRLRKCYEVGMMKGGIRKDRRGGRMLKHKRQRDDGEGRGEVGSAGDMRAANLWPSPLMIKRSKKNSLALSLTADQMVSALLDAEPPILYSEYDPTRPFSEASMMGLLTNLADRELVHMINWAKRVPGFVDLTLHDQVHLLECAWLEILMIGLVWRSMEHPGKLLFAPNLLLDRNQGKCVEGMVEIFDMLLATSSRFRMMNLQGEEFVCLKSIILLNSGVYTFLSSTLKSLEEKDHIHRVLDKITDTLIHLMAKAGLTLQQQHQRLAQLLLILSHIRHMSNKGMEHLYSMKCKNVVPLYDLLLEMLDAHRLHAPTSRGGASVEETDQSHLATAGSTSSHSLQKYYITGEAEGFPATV

[2] = biological target: T2, Alpha-2A adrenergic receptor (Homo sapiens, UniProt P08913); type: functional, cell-based
T2 sequence (P08913 whole entry): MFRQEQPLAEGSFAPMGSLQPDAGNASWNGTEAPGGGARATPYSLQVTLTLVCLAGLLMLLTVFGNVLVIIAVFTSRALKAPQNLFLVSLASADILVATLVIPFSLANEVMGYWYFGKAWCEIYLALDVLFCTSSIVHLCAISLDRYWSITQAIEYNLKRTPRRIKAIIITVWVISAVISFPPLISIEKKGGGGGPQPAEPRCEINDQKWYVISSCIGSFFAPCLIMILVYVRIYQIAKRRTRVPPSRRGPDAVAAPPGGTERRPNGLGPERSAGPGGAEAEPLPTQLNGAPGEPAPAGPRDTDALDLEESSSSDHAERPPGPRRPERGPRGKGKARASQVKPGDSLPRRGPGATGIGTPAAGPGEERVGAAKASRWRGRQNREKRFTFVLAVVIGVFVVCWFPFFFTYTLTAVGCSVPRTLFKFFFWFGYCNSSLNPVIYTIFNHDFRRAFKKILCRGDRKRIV

Vasopressin V1a receptor = Vasopressin V1a receptor (Homo sapiens, UniProt P37288)
Sequence of Vasopressin V1a receptor (P37288 whole entry): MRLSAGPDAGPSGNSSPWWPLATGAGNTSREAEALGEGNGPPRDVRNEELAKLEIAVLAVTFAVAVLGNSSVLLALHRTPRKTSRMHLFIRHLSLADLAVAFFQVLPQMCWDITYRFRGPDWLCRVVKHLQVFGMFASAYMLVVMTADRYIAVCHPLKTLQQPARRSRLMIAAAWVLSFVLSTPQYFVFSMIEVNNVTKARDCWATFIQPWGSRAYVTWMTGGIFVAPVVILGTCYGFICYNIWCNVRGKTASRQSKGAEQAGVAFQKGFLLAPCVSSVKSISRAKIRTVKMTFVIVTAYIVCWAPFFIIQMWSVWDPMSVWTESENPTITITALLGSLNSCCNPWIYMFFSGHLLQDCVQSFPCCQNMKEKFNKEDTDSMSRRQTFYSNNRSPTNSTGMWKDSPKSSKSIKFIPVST

Vasopressin V2 receptor = Vasopressin V2 receptor (Homo sapiens, UniProt P30518)
Sequence of Vasopressin V2 receptor (P30518 whole entry): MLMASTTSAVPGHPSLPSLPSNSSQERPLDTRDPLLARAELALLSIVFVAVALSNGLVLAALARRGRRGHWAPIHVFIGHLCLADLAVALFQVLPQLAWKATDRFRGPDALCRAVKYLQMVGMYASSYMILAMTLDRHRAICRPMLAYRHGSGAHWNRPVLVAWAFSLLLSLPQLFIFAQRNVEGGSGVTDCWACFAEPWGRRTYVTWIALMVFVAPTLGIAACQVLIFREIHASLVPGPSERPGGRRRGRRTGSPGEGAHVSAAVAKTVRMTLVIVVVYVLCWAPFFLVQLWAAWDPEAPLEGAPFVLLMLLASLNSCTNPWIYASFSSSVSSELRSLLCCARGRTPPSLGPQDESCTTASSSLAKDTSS

B2 bradykinin receptor = biological target: T3, B2 bradykinin receptor (Homo sapiens, UniProt P30411)
T3 sequence (P30411 whole entry): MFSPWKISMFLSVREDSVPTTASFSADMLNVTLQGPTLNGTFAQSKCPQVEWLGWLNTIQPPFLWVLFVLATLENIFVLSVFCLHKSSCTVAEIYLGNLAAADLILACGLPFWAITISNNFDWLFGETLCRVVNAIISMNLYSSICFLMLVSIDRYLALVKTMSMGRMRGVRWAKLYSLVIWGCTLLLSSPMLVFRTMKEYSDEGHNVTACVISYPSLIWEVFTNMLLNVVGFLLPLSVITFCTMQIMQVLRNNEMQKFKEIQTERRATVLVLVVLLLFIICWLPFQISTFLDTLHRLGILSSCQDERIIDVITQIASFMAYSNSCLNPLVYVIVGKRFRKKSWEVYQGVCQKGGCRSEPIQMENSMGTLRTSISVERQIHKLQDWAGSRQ

Histamine H2 receptor = Histamine H2 receptor (Homo sapiens, UniProt P25021)
Sequence of Histamine H2 receptor (P25021 whole entry): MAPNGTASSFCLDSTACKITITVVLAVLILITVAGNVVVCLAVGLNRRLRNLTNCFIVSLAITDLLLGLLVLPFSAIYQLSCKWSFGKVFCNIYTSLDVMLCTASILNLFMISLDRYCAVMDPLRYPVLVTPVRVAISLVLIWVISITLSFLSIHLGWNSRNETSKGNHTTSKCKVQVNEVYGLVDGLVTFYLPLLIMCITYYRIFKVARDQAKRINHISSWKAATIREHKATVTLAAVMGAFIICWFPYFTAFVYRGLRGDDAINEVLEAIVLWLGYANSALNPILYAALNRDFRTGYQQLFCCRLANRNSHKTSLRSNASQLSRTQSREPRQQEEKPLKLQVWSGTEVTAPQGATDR

Melanocortin receptor 4 = Melanocortin receptor 4 (Homo sapiens, UniProt P32245)
Sequence of Melanocortin receptor 4 (P32245 whole entry): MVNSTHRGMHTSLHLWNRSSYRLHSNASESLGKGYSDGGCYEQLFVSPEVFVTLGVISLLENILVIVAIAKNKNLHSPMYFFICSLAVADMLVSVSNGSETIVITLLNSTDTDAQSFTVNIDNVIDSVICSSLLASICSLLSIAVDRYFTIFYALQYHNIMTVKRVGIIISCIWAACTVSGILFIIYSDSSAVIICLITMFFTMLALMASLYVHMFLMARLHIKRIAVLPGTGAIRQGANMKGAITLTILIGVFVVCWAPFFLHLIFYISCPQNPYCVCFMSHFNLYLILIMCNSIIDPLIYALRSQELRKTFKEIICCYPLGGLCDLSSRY

[3] = biological target: Neurotensin receptor type 1 (Homo sapiens, UniProt P30989)
Sequence of Neurotensin receptor type 1 (P30989 whole entry): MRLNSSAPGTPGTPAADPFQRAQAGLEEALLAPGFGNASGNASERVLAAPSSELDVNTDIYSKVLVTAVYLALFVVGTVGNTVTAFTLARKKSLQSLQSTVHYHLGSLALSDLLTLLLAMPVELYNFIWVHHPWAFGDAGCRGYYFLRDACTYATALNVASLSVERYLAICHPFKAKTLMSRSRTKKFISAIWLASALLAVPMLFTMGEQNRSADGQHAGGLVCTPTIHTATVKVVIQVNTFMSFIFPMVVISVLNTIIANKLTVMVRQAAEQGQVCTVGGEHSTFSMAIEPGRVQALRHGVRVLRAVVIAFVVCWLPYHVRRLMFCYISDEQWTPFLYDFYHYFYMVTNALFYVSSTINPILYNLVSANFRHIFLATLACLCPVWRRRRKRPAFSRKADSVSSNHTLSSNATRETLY

[4] = biological target: cGMP-inhibited 3',5'-cyclic phosphodiesterase 3A (Homo sapiens, UniProt Q14432); type: functional
Sequence of cGMP-inhibited 3',5'-cyclic phosphodiesterase 3A (Q14432 whole entry): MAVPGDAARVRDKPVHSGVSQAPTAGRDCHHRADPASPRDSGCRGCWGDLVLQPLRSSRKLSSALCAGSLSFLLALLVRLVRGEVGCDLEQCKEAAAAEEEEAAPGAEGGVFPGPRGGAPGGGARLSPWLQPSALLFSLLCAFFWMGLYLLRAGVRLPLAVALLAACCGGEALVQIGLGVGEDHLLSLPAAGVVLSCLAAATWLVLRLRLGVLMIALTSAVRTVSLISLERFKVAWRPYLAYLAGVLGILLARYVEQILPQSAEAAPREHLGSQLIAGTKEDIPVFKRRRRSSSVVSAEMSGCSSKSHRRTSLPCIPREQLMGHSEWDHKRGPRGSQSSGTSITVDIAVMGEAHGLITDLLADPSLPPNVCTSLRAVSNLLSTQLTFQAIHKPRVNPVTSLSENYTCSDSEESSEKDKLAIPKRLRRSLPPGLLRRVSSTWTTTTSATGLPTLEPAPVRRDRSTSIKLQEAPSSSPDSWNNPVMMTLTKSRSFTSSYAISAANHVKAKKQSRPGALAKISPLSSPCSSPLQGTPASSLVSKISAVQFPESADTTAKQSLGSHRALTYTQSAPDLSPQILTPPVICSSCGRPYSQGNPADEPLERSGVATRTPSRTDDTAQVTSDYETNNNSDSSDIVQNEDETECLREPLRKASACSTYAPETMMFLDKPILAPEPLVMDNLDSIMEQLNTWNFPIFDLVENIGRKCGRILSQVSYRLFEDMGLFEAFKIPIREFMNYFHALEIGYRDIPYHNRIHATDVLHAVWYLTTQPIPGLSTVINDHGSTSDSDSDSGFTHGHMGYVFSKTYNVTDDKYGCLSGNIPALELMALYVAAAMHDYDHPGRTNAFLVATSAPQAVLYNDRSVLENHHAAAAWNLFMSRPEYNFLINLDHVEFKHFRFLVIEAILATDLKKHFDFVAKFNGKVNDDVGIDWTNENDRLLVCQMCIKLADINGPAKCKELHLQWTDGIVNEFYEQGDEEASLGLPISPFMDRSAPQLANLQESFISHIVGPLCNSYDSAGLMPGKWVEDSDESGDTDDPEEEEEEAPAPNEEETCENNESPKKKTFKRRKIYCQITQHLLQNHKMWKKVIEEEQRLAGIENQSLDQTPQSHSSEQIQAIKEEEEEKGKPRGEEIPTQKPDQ

[5] = biological target: Beta-1 adrenergic receptor (Homo sapiens, UniProt P08588); type: functional
Sequence of Beta-1 adrenergic receptor (P08588 whole entry): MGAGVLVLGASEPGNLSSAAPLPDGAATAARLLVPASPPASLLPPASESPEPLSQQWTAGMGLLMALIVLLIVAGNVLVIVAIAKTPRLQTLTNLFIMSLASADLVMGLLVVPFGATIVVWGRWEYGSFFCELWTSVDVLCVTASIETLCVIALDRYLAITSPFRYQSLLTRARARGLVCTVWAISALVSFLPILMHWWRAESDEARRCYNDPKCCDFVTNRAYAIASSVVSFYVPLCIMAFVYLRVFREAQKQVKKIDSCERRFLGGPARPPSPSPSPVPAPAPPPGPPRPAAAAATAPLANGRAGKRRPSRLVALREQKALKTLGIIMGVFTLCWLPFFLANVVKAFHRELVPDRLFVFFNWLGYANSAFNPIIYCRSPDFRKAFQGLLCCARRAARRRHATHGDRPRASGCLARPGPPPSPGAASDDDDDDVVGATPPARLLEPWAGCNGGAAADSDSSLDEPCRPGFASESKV

[6] = biological target: 5-hydroxytryptamine receptor 2B (Homo sapiens, UniProt P41595); type: functional, cell-based
Sequence of 5-hydroxytryptamine receptor 2B (P41595 whole entry): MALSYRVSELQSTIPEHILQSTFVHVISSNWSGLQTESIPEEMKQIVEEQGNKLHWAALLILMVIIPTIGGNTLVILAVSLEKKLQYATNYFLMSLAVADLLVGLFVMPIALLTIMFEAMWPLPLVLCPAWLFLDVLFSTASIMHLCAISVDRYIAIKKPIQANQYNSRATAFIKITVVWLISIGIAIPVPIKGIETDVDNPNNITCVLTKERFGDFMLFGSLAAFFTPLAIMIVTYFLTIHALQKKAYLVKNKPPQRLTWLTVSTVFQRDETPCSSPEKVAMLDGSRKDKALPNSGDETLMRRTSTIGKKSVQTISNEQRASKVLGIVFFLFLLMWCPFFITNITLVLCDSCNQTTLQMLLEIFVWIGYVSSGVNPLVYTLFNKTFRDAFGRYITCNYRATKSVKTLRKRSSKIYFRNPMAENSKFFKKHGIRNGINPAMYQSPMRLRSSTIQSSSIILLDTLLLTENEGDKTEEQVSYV

[7] = biological target: T4, 5-hydroxytryptamine receptor 1A (Homo sapiens, UniProt P08908); type: functional, cell-based
T4 sequence (P08908 whole entry): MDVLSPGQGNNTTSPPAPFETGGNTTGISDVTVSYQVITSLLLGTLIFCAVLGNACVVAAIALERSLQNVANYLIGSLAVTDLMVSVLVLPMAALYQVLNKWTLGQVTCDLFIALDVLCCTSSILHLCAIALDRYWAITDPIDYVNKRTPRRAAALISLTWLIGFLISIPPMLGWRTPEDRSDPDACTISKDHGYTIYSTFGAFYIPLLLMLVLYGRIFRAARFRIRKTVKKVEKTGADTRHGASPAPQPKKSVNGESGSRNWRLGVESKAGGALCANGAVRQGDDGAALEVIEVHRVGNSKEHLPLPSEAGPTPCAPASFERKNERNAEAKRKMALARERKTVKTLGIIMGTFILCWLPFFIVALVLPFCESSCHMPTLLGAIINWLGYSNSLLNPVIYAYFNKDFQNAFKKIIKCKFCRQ
Further: assay procedure not described here.

Sequence of Sodium-dependent serotonin transporter (P31645 whole entry): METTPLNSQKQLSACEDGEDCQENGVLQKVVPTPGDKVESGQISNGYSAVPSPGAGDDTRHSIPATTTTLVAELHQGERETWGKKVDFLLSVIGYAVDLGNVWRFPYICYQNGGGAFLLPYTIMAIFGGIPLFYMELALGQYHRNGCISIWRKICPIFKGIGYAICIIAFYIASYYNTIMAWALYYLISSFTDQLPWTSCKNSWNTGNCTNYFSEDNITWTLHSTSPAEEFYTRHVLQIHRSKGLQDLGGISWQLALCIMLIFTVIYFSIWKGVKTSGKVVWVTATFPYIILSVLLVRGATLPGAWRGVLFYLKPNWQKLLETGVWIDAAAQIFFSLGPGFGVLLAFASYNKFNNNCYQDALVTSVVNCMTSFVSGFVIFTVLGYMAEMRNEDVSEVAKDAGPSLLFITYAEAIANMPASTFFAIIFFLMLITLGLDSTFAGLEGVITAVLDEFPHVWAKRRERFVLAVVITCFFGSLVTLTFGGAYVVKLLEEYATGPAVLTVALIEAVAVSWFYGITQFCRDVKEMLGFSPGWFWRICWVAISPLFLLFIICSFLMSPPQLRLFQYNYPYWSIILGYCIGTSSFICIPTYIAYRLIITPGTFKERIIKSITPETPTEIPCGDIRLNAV

SMILES: C=N[C@@H](C(=O)N[C@@H]1C(=O)N2[C@@H]1SC(C)(C)[C@@H]2C(=O)O)c1ccccc1 [METAMPICILLIN]
- AC50 [1]: > 30 µM

SMILES: O=C(NNCS(=O)(=O)O)c1ccncc1 [METHANIAZIDE]
- AC50 (Estrogen receptor): > 30 µM
- AC50 [1]: > 30 µM

SMILES: Cc1cc(=O)[nH]c(=S)[nH]1 [METHYLTHIOURACIL]
- AC50 (Estrogen receptor): > 30 µM
- AC50 [1]: > 30 µM

SMILES: CC[C@@H](CO)NC(=O)[C@@H]1C=C2c3cccc4c3c(cn4C)C[C@H]2N(C)C1 [METHYSERGIDE]
- AC50 [2]: > 10 µM
- AC50 (Vasopressin V1a receptor): > 30 µM
- AC50 (Vasopressin V2 receptor): > 30 µM
- AC50 (B2 bradykinin receptor): > 30 µM
- AC50 (Histamine H2 receptor): 2.44 µM
- AC50 (Melanocortin receptor 4): > 30 µM
- AC50 [3]: > 30 µM
- AC50 [4]: > 30 µM

SMILES: CN(C)c1ccc(O)c2c1C[C@H]1C[C@H]3[C@H](N(C)C)C(O)=C(C(N)=O)C(=O)[C@@]3(O)C(O)=C1C2=O [MINOCYCLINE]
- AC50 (Estrogen receptor): > 30 µM
- AC50 [1]: > 30 µM

SMILES: CCNC(=O)/C=C(C)/C=C/C=C(C)/C=C/c1c(C)cc(OC)c(C)c1C [MOTRETINIDE]
- AC50 (Estrogen receptor): 16.4 µM
- AC50 [1]: 28.3 µM

SMILES: C=CC(=O)Nc1cccc(Oc2nc(Nc3ccc(N4CCN(C)CC4)cc3)nc3ccsc23)c1 [OLMUTINIB]
- AC50 (Estrogen receptor): 28.6 µM
- AC50 [1]: > 30 µM

SMILES: CCCCC1C(=O)N(c2ccccc2)N(c2ccc(O)cc2)C1=O (stereo not given) [OXYPHENBUTAZONE ANHYDROUS]
- AC50 [1]: > 30 µM

SMILES: O=C(O)CN(CCN(CC(=O)O)CC(=O)O)CCN(CC(=O)O)CC(=O)O [PENTETIC ACID]
- AC50 [1]: 0.0429 µM

SMILES: Nc1cccc2c1C(=O)N(C1CCC(=O)NC1=O)C2=O (stereo not given) [POMALIDOMIDE]
- AC50 (Estrogen receptor): > 30 µM
- AC50 [1]: > 30 µM

SMILES: CN(CCOc1ccc(CC2SC(=O)NC2=O)cc1)c1ccccn1 (stereo not given) [ROSIGLITAZONE]
- AC50 [2]: > 30 µM
- AC50 [5]: > 30 µM
- AC50 (Vasopressin V1a receptor): > 30 µM
- AC50 (Vasopressin V2 receptor): > 30 µM
- AC50 (B2 bradykinin receptor): > 30 µM
- AC50 (Histamine H2 receptor): > 10 µM
- AC50 [6]: 14 µM
- AC50 (Melanocortin receptor 4): 23.7 µM
- AC50 [3]: > 30 µM
- AC50 [4]: > 30 µM

SMILES: C[Se]CC[C@H](N)C(=O)O [SELENOMETHIONINE]
- AC50 (Estrogen receptor): > 30 µM
- AC50 [1]: > 30 µM

SMILES: Cc1ccsc1C(=CCCN1CCC[C@@H](C(=O)O)C1)c1sccc1C [TIAGABINE]
- AC50 (Estrogen receptor): > 30 µM
- AC50 [1]: > 30 µM

SMILES: Cc1ccccc1C(=O)Nc1ccc(C(=O)N2CCCC(O)c3cc(Cl)ccc32)c(C)c1 (stereo not given) [TOLVAPTAN]
- AC50 [1]: > 30 µM

SMILES: CC(C)[C@H](N)C(=O)OCCOCn1cnc2c(=O)[nH]c(N)nc21 [VALACYCLOVIR]
- AC50 [2]: > 10 µM
- AC50 [5]: > 10 µM
- AC50 (Vasopressin V1a receptor): > 10 µM
- AC50 (Vasopressin V2 receptor): > 30 µM
- AC50 (B2 bradykinin receptor): > 30 µM
- AC50 (Histamine H2 receptor): > 10 µM
- AC50 [7]: > 10 µM
- AC50 [6]: > 10 µM
- AC50 (Melanocortin receptor 4): > 30 µM
- AC50 [3]: > 30 µM
- AC50 [4]: > 30 µM

SMILES: CC[C@]12CCCN3CCc4c(n(c5ccccc45)[C@@](O)(C(=O)OC)C1)[C@@H]32 [VINCAMINE]
- AC50 [1]: > 30 µM
